Patent US20230405000A1, “TABLET FOR USE IN TREATING HUNTINGTON'S DISEASE AND METHOD OF MAKING THE SAME” (PTC THERAPEUTICS, INC., priority 2020, published 2023)
“Also recorded” adds a separate entry of the source.

Tests used:
[1] = test system: human HTT; assay: Transgenic mouse models of Huntington's disease; format: in vivo
Description: An international application published as WO2020/005873 identified a genus of compounds that can be used in the treatment of HD, methods of making the same and pharmaceutical formulations of the same. […] At present, only symptomatic treatments are available. Thus, to date, there is no small molecule therapy available to slow the progression of HD. Accordingly, there is a need for small molecule disease-modifying therapies for HD (i.e. therapeutic options that can slow disease progression).
At the selected doses of 10 mg QD and 20 mg QD, the predicted percent full-length HTT mRNA decreases are within the target range of 30 to 50% reduction from baseline. […] Therefore, the observed preclinical HTT mRNA changes are anticipated to result in similar decreases in HTT protein levels in HD patients. Thus, based upon the totality of the clinical and preclinical safety data to date, and the anticipated reduction in HTT mRNA and protein derived from clinical data and pharmacokinetic-pharmacodynamic modeling, the doses of 10 mg and 20 mg are expected to be safe, well tolerated, and beneficial to subjects with HD.

[2] = Phase 1 study: safety and tolerability in healthy subjects; format: in vivo, human
Procedure: Phase 1 Dose Escalation Study was initiated to assess the safety and pharmacokinetics of Compound 1 Oral Tablets (5 mg and 50 mg) compared to placebo in healthy subjects.
(i) To characterize the safety and tolerability of single ascending doses of Compound 1 in healthy subjects; (ii) To characterize the safety and tolerability of Compound 1 administered for 14 or up to 21 days in healthy subjects; (iii) To characterize the pharmacokinetics in plasma and cerebrospinal fluid (CSF) after administration of Compound 1 for 7 days in healthy subjects; (iv) To characterize the food effect on the pharmacokinetics (PK) in plasma of Compound 1 after administration of a single dose of Compound 1 in healthy subjects; and, (v) To characterize the safety and tolerability of Compound 1 administered for up to 28 days in healthy subjects.
The study was monitored by a Safety Review Committee (SRC). […] Safety and tolerability was assessed by the SRC between each cohort prior to ascending from one dose level to the next higher dose level in Part 1 (single ascending dose [SAD]) and fart 2 (multiple ascending dose [MAD]), and prior to initiating Part 3 (CSF), Part 4 (FE), and Part 5.
The following parameters were defined as parameters regarding safety and tolerability: […]
Change from baseline to each scheduled time point up to EOS for vital signs; Change from baseline to each scheduled time point up to EOS for ECG parameters; Change from baseline to each scheduled time point up to EOS for clinical laboratory tests; Changes from baseline in C-SSRS scores (Part 2, Part 3, and Part 5 only); Treatment-emergent adverse events (AEs) up to EOS; Treatment-emergent AEs leading to premature discontinuation of study drug; Treatment-emergent serious adverse events (SAEs) up to FOS; and, Abnormalities in physical examination.

[3] = Compound 1 in CSF and free plasma of non human primates; format: in vivo
Procedure: The two subjects in this cohort received 30 mg daily dose.

[4] = test system: HTT mRNA; assay: Phase 1 study: HTT mRNA in whole blood of healthy volunteers (RT-PCR); format: in vivo, human
Description: (i) To explore the effect of single dose of Compound 1 administered on huntingtin (HTT) premRNA splicing in the blood of healthy subjects; (i) To explore the effect of Compound 1 administered for 14 or up to 21 days on HTT pre-m RNA splicing and HTT protein levels in the blood of healthy subjects; (ii) To explore the effect of single dose of Compound 1 administered (with food) on HTT pre-mRNA splicing in the blood of healthy subjects; and, (iii) To explore the effect of Compound 1 administered for up to 28 days on HTT premRNA splicing and HTT protein levels in the blood of healthy subjects.
The single ascending dose (SAD) part of the study was randomized, double-blinded, and placebo controlled in healthy male and female subjects.
The multiple ascending (MAD) part of the study was randomized, double-blind, and placebo controlled in healthy male and female subjects. Up to five regimens are planned to be tested in up to 5 cohorts of 8 subjects each (Cohort 2.1 to 2.5). Within each cohort, 6 subjects were to receive Compound 1 and 2 subjects were to receive placebo. Subjects in Cohort 2.1 and 2.2 were to be dosed for 14 days, subjects in Cohort 2.3 to 2.5 were to be dosed for up to 21 days.
The amount of HTT mRNA was then evaluated by RT-PCR 6 hours after administration of Compound 1 on day 14.
Results from measurement of HTT RNA in the whole blood of human subject administered a placebo or 15 or 30 mg of Compound 1, as described in the Multiple Ascending Dose (MAD) study above are illustrated in FIG. 15. HTT splicing was monitored after the final dose at day 14, calculated as % HTT remaining from baseline (pre-dose day 0).

[5] = Phase 1 study: Compound 1 levels in CSF compared with plasma; format: in vivo, human
Description: The concentrations of Compound 1 in plasma and CSF were to be assessed in an open-label design in healthy male and female subjects. A single dose of Compound 1 was to be administered daily for 7 days in 1 cohort of 6 subjects (Cohort 3.1) The dose level of Part 3 was to be determined based upon a review of the safety, tolerability, and PK data of Part 1 and Part 2 of the study. While the MAD dose was to be determined further in development, that dose and schedule was to be applied to this part of the study.
Eligibility was to be assessed during a screening period of up to 28 days. Subjects were to check into the clinic 1 day before dosing (Day −1). On the morning of Day 1 to Day 7, Compound 1 was to be orally administered after an overnight fast of at least 10 hours each day. Serial sampling of CSF and sampling of plasma for drug concentrations was to be performed on Day 7 The exact timing of the CSF and blood samples was to be determined based on the results of Part 1 and Part 2. Subjects were to be released from the clinic on Day 9 after all required study procedures are completed and if medically appropriate. A follow-up safety phone call was to occur 4 weeks (±1 week) after discharge on Day 9.
The CSF sampling enabled the evaluation of pharmacokinetics of Compound 1 in the CSF wherein Compound 1 levels in the CSF were compared with Compound 1 levels in plasma. […] The food effect portion enabled the evaluation of pharmacokinetics of Compound 1 in plasma after administration of a single dose of Compound 1 in healthy subjects.

[6] = Rat toxicology (NOAEL); format: in vivo; conditions: male rats
Procedure: The initial dose in the first cohort was ≥ 1/10 of the human equivalent dose (HED) estimated from the NOAEL (no observed adverse effect level) of the (male) rat, which is the most sensitive species, following the FDA guidance on the maximum recommended starting dose (MRSD) and EMA guidelines. The NOAEL of the rat is 6 mg/kg. […] The HED of 0.97 mg/kg was calculated; this scaled in a 70 kg human to 68 mg. Adjusting this dose to 1/10, the dose of the first cohort was 6.8; the actual administered dose will be 5 mg.

## CC1(C)CC(n2nnc3cc(-c4ccc(-n5nccn5)cc4O)nnc32)CC(C)(C)N1 [Compound 1, 2-[3-(2,2,6,6-tetramethylpiperidin-4-yl)-3H-[1,2,3]triazolo[4,5-c]pyridazin-6-yl]-5-(2H-1,2,3-triazol-2-yl)phenol]
[1]; bacterial artificial chromosome transgenic mouse model of HD
  relation of HTT pre-mRNA splicing to protein lowering: strong correlation between levels of HTT pre-mRNA splicing and the degree of protein lowering
[1]; transgenic mouse models of Huntington's disease, results not yet published
  reduction of human HTT production in vivo: effective in reducing human HTT production in vivo
[2]; SAD and MAD portions, versus placebo
  overall incidence of AEs: comparable between subjects who received placebo and those who received Compound 1
[2]; any dose, SAD and MAD portions
  laboratory abnormalities or ECG findings: no clinically significant laboratory abnormalities or electrocardiogram (ECG) findings
[2]; healthy subjects, single doses 5 mg to 135 mg, multiple doses 15 mg and 30 mg up to 21 days
  safety and tolerability: well-tolerated with no safety-related findings; also recorded: safe and generally well tolerated
[3]
  blood brain barrier penetration: crosses the Blood Brain Barrier
[4]; MAD cohort, 15 mg or 30 mg for 14 days, 6 hours after dose on day 14
  lowering of HTT mRNA in whole blood: dose-dependent lowering
[4]; Multiple Ascending Dose Study
  time of treatment until HTT mRNA levels reached steady state: 4 to 5 days
[4]; SAD cohort, 24 hours after single dose of 5, 15, 45, 90 or 135 mg
  lowering of HTT mRNA in whole blood: dose-dependent lowering
[5]; healthy subjects, 30 mg daily dose
  Compound 1 levels in the CSF compared with plasma: equal to or greater than levels observed in plasma; also recorded: at least equivalent or greater than levels observed in the plasma
[5]; humans
  blood brain barrier penetration: crossed the blood brain barrier
  efflux: not subject to efflux
[6]
  observation that set the NOAEL: germ cell exfoliation in epididymis and testes
